Where two headings read alike, the source gives them in different places.
Legend:
Assay type in all cases: in vivo
Aphis craccivoral = test: Activity test for cowpea aphids, immersing; details: for mortality at 500 ppm: Aphis, read-out: Cowpea Aphids Mortality (100%) 500 ppm
Method: (1) Activity Test for Cowpea Aphids (Aphis Craccivoral)
Aphis, which belongs to Homoptera and has a piercing-sucking mouthpart, is a common insect for agricultural plant. Aphis craccivoral was tested by the way of immersing.
Test method: exactly weighed various samples were independently added to N,N-dimethylformamide to form a 10 g/L stock solution. The mixture was diluted with 0.2 mL/L aqueous Triton X-100 solution to a concentration of 500 ppm After stably sucking on bean sprout, the adult aphis without wings together with bean sprout was dipped into 500 ppm dilution, taken out after 5 seconds, and the excess dilution was sucked out with bibulous paper and the adult aphis without wings was incubated in clean vessel at a constant temperature of 23° C. Each concentration was repeated for 3 times and the control group contained 0.2 mL/L aqueous Triton X-100 solution. The number of killed aphis was counted after 24 hours to calculate the mortality by the following formula: mortality(%)=(control alive aphis−treated alive aphis)/control alive aphis×100%.

Nilaparvata lugens = test: Activity test for planthopper, spraying; details: for mortality at 500 ppm: Nilaparvata lugens, read-out: Planthopper Mortality (100%) 500 ppm
Method: (2) Activity Test for Planthopper (Nilaparvata lugens)
Planthopper, which belongs to Homoptera and has a piercing-sucking mouthpart, is a common insect for agricultural plant. Nilaparvata lugens was tested by the way of spraying.
Test method: the test compound was exactly formulated into a solution of acetone to final concentration of 500, 250, 100, 50, 25, 12.5, 6.25, 3.13, 1.57 and 0.79 ppm. The acetone aqueous solution was used as control. Each process was repeated for 3 tumblers (3 times). 2 mL of solution was sprayed uniformly to each cup by a mini manual sprayer. 10 Nilaparvata lugens were introduced to every sink 6 hours before spraying. Three series of experiments were conducted. The number of killed Nilaparvata lugens was counted after 24 hours to calculate the mortality using above mentioned formula.

Plutella Xylostella = test: Activity test for diamondback moth, feeding immersed cabbage leaves; details: for mortality at 500 ppm: Plutella xylostella, read-out: Diamondback moth Mortality (100%) 500 ppm
Method: (4) Activity Test for Diamondback Moth (Plutella Xylostella)
Diamondback moth was tested by the way of feeding immersed leaves. Fresh cabbage leaves were immersed in above mentioned solution for 3 seconds and dried at room temperature and used to feed to the tested insects. Each process was repeated for 3 tumblers (3 times) while 10 Diamondback moths were tested in each experiment, while water was used as control. The number of killed Diamondback moth was counted after 24 hours to calculate the mortality using above mentioned formula.

[1] = tested on: Pseudaletia Separate Walker; test: Activity test for armyworm, feeding immersed maize leaves; details: for mortality at 500 ppm: read-out: Armyworm Mortality (100%) 500 ppm
Method: (3) Activity Test for Armyworm (Pseudaletia Separate Walker)
Armyworm was tested by the way of feeding immersed leaves. The test compound was exactly formulated into a solution of acetone to concentration 500, 250, 100, 50, 25, 12.5, 6.25, 3.13 and 1.57 ppm. The acetone aqueous solution was used as control. Fresh maize leaves were immersed in the solution for 3 seconds and dried at room temperature and used to feed the tested insects. Each process was repeated for 3 times while 10 Armyworms were tested in each experiment. The number of killed Armyworms was counted after 24 hours to calculate the mortality using above mentioned formula.

[2] = 500 ppm, dipped 5 seconds, counted after 24 hours, 23° C.
[3] = 500 ppm, spraying, counted after 24 hours
[4] = 500 ppm, immersed cabbage leaves, counted after 24 hours
[5] = 500 ppm, immersed maize leaves, counted after 24 hours

Row | Compound | mortality at 500 ppm (Aphis craccivoral; 24 h) [%] | mortality at 500 ppm (Nilaparvata lugens; 24 h) [%] | mortality at 500 ppm (Plutella Xylostella; 24 h) [%] | mortality at 500 ppm ([1]; 24 h) [%] | mortality at 500 ppm (Aphis craccivoral; [2]) [%] | mortality at 500 ppm (Nilaparvata lugens; [3]) [%] | mortality at 500 ppm (Plutella Xylostella; [4]) [%] | mortality at 500 ppm [1, 5] [%] | also measured
1 | 1-((6-chloropyridin-3-yl)methyl)-5-(1-((6-chloropyridin-3-yl) methyl)-1,4,5,6-tetrahydropyrimidin-2-yl)-1,5-dinitropenta-1,4-dienyl)-1,4,5,6-tetrahydropyrimidine [Compound 43] | – | – | – | – | – | – | – | – | Cowpea Aphids Mortality (100%) 500 ppm (Aphis craccivoral; [2]): 78%; Planthopper Mortality (100%) 500 ppm (Nilaparvata lugens; [3]): 87%; Diamondback moth Mortality (100%) 500 ppm (Plutella Xylostella; [4]): 96%; Armyworm Mortality (100%) 500 ppm [1, 5]: 100%
2 | O=[N+]([O-])/C(=C1/NCCN1Cc1ccc(Cl)nc1)C(O)/C=C(\C1=NCCN1Cc1ccc(Cl)nc1)[N+](=O)[O-] (stereo not shown) [Compound 13, 4-(1-((6-chloropyridin-3-yl)methyl)-4,5-dihydro-1H-imidazol-2-yl)-1-(1-((6-chloropyridin-3-yl)methyl)imidazolidin-2-ylidene)-1,4-dinitrobut-3-en-2-ol] | 78 | 85 | 100 | 100 | – | – | – | – | –
3 | COC(/C=C(\C1=NCCN1Cc1ccc(Cl)nc1)[N+](=O)[O-])/C(=C1\NCCN1Cc1ccc(Cl)nc1)[N+](=O)[O-] (stereo not shown) [Compound 14] | 100 | 100 | 100 | 100 | – | – | – | – | –
4 | CCN(Cc1ccc(Cl)nc1)C(=N\C)/C(=C\C/C=C(\C(=N\C)N(CC)Cc1ccc(Cl)nc1)[N+](=O)[O-])[N+](=O)[O-] [Compound 37, N^1,N^7-bis((6-chloropyridin-3-yl)methyl)-N^1,N^7-diethyl-N^1′, N^7′-dimethyl-2,6-dinitrohepta-2,5-dienediamidine] | 100 | 100 | 100 | 100 | – | – | – | – | –
5 | O=[N+]([O-])/C(=C/C/C=C(\C1=NCCN1Cc1ccc(Cl)nc1)[N+](=O)[O-])C1=NCCN1Cc1ccc(Cl)nc1 [Compound 39] | 100 | 100 | 100 | 100 | – | – | – | – | –
6 | O=[N+]([O-])/C(=C/C/C=C(\C1=NCCN1Cc1cnc(Cl)s1)[N+](=O)[O-])C1=NCCN1Cc1cnc(Cl)s1 [Compound 41] | 100 | 100 | 100 | 100 | – | – | – | – | –
7 | CCN(Cc1ccc(Cl)nc1)C1=C([N+](=O)[O-])C2CCC(O2)N1C (stereo not shown) [Compound 46, N-((6-chloropyridin-3-yl)methyl)-N-ethyl-2-methyl-4-nitro-8-oxa-2-aza-bicyclo[3.2.1]oct-3-en-3-amine] | – | – | – | – | 100 | 100 | 100 | 100 | –
8 | O=[N+]([O-])C1=C2N(Cc3ccc(Cl)nc3)CCN2C2CCC1O2 (stereo not shown) [Compound 52, 1-((6-chloropyridin-3-yl)methyl)-9-nitro-2,3,5,6,7,8-hexahydro-1H-5,8-epoxyimidazo[1,2-a]azepine] | – | – | – | – | 100 | 100 | 100 | 100 | –
9 | O=[N+]([O-])C1=C2N(Cc3cnc(Cl)s3)CCN2C2CCC1O2 (stereo not shown) [Compound 53, 1-((2-chlorothiazol-5-yl)methyl)-9-nitro-2,3,5,6,7,8-hexahydro-1H-5,8-epoxyimidazo[1,2-a]azepine] | – | – | – | – | 100 | 100 | 100 | 100 | –
10 | O=[N+]([O-])C1=C2N(Cc3ccc(Cl)nc3)CCCN2C2CCC1O2 (stereo not shown) [Compound 61, 1-((6-chloropyridin-3-yl)methyl)-10-nitro-1,2,3,4,6,7,8,9-octahydro-6,9-epoxypyrimido[1,2-a]azepine] | – | – | – | – | 65 | 75 | 35 | 76 | –
11 | N#CC1=C2N(Cc3ccc(Cl)nc3)CCN2C2CCC1O2 (stereo not shown) [Compound 64, 1-((6-chloropyridin-3-yl)methyl)-2,3,5,6,7,8-hexahydro-1H-5,8-epoxyimidazo[1,2-a]azepine-9-carbonitrile] | – | – | – | – | 96 | 56 | 100 | 100 | –
12 | O=[N+]([O-])C1=C2N(Cc3ccc(Cl)nc3)CCN2C2CCCC1O2 (stereo not shown) [Compound 77, 1-((6-chloropyridin-3-yl)methyl)-10-nitro-1,2,3,5,6,7,8,9-octahydro-5,9-epoxyimidazo[1,2-a]azocine] | – | – | – | – | 100 | 100 | 100 | 100 | –
13 | O=[N+]([O-])C1=C2N(CC3CCOC3)CCN2C2CCCC1O2 (stereo not shown) [Compound 80, 10-nitro-1-((tetrahydrofuran-3-yl)methyl)-1,2,3,5,6,7,8,9-octahydro-5,9-epoxyimidazo[1,2-a]azocine] | 100 | 100 | – | 100 | – | – | 100 | – | –

Source: US8563546B2, “Heterocyclic nitrogenous or oxygenous compounds with insecticidal activity formed from dialdehydes and their preparation and uses thereof” (East China University of Science and Technology, priority 2008, dated 2013)
